# Results taken from patent US8623913B2, “Methods for treating restless legs syndrome” (priority 2010, dated 2014).
# Entries after “also recorded” stand apart in the source; their conditions may differ.
# Assays:
# [1] = system: wild-type mice; test: Spontaneous activity in the open field, wild-type mice; assay type: in vivo; conditions: WT mice; 2 mg/kg SC
# Protocol: Male and female wild-type and homozygous mutant dopamine transporter KO mice (n˜10 mice/genotype/agent; produced by in vivo homologous recombination and bred at Duke University Medical Center, Durham, N.C.) were tested for spontaneous activity in the open field following a single injection of the vehicle or compound. Mice were placed into the open field for 30 min and administered SC the vehicle (sterile water), 2 mg/kg amphetamine, or three concentrations of the test compound (10, 30, 100 mg/kg). All drugs were given in a volume of 5 mL/kg. Animals were returned to the open field for an additional 90 min. Spontaneous activity was evaluated in an automated Omnitech Digiscan apparatus (Accuscan Instruments, Columbus, Ohio). […] Horizontal activity or locomotion was measured in terms of the total distance covered in cm, vertical activity or rearing was expressed in terms of the total numbers of vertical beam breaks, and stereotypy was quantified in terms of repetitive breaks of a given beam or beams with intervals of less than 1 sec. […] Data were analyzed by the Statistical Package for Social Sciences programs (version 11.0 for Windows; SPSS Science, Chicago, Ill.). The results for each dependent variable were analyzed by repeated analyses of variance (RMANOVA) for within subjects effects (group differences over time) and between-subjects effects (tests of main effects and interactions). […]
# [2] = system: homozygous mutant dopamine transporter knockout (KO) mice; test: Spontaneous activity in the open field, dopamine transporter KO mice; assay type: in vivo
# Protocol: Male and female wild-type and homozygous mutant dopamine transporter KO mice (n˜10 mice/genotype/agent; produced by in vivo homologous recombination and bred at Duke University Medical Center, Durham, N.C.) were tested for spontaneous activity in the open field following a single injection of the vehicle or compound. […] All drugs were given in a volume of 5 mL/kg. Animals were returned to the open field for an additional 90 min. Spontaneous activity was evaluated in an automated Omnitech Digiscan apparatus (Accuscan Instruments, Columbus, Ohio). Activity was summated at 5 min intervals over the 2 h period of testing. Horizontal activity or locomotion was measured in terms of the total distance covered in cm, vertical activity or rearing was expressed in terms of the total numbers of vertical beam breaks, and stereotypy was quantified in terms of repetitive breaks of a given beam or beams with intervals of less than 1 sec. For the analyses, 10 WT and 10 KO mice were run in each of the treatment groups with approximately equal numbers of males and females assigned to each group. Data were analyzed by the Statistical Package for Social Sciences programs (version 11.0 for Windows; SPSS Science, Chicago, Ill.). The results for each dependent variable were analyzed by repeated analyses of variance (RMANOVA) for within subjects effects (group differences over time) and between-subjects effects (tests of main effects and interactions). Bonferroni corrected pair-wise comparisons were used as the post-hoc tests. A p<0.05 was considered significant.
# [3] = target: T1, hDAT (human dopamine transporter) (Homo sapiens, UniProt Q01959); test: Filtration assay for inhibition of [3H]dopamine uptake in HEK-hDAT cells; assay type: cell-based
# T1 construct: expressed in transfected cells; host or cells: HEK293 cells (ATCC), clonal, kept under puromycin selection
# T1 sequence (Q01959 whole entry): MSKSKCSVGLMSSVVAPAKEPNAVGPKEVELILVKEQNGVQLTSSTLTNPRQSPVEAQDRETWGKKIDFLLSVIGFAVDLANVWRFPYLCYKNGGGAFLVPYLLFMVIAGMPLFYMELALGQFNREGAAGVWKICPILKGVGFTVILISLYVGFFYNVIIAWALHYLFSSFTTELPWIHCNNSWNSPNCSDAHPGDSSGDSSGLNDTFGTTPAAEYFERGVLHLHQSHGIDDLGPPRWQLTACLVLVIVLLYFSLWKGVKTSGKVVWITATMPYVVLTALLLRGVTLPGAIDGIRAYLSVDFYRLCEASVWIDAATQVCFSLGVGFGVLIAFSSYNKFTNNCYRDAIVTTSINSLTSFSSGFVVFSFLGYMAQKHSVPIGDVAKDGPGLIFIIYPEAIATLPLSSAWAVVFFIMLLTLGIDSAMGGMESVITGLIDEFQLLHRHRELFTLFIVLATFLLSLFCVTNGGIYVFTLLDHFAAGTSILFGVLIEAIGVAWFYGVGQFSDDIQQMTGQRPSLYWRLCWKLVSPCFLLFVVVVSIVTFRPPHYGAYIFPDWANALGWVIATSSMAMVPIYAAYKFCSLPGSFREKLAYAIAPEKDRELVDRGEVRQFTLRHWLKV
# [4] = target: T2, hSERT (human serotonin transporter) (Homo sapiens, UniProt P31645); test: Inhibition of [125I]RTI-55 radioligand binding to hSERT in HEK293 cell membranes
# T2 construct: expressed in transfected cells; host or cells: HEK293 cells (ATCC), clonal, kept under puromycin selection
# T2 sequence (P31645 whole entry): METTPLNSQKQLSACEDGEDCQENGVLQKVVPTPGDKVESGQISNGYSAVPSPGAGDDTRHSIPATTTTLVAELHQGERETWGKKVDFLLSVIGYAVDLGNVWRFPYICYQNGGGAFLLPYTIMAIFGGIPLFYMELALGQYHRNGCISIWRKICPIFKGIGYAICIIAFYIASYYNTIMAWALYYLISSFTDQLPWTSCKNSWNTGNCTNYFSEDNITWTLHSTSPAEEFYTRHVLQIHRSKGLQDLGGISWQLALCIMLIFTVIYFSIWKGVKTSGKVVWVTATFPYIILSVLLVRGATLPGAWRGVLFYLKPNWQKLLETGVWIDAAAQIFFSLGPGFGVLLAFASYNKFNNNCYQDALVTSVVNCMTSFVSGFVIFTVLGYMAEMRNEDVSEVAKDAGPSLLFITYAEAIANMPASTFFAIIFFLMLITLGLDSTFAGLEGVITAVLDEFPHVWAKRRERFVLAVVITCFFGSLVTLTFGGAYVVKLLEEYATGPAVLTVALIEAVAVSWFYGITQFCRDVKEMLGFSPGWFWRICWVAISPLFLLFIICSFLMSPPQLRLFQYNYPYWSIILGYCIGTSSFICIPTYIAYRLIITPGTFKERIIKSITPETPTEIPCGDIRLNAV
# [5] = system: hypocretin cell ablated narcoleptic mice (prepororexin/ataxin-3 transgenic); test: Sleep parameters (EEG/EMG) in narcoleptic mice; assay type: in vivo; conditions: for Duration of continuous wakefulness: resting period (ZT 2)
# Source text: (§1) The polygraph signal (EEG (electroencephalography) and EMG (electromyography)) was captured with SleepSign (Kissei Comtech), and the sleep stage was visually scored with 10 sec epoch for wakefulness, non-REM sleep and REM sleep. Scoring criteria are: Wakefulness is characterized by desynchronized low-amplitude, mixed frequency (>4 Hz) EEG and high EMG activity. Rhythmic alpha (8-9 Hz) wave (with high EMG activities) may also appear. Non-REM is characterized by synchronized, high-amplitude, low-frequency (0.25-4 Hz) with reduced EMG activity (compared to wakefulness). EEG activity in REM sleep is similar to that in wakefulness, with desynchronized, mixed frequency low amplitude waves. Rhythmic alpha (8-9 Hz) wave with reduced EMG activities may also appear. […] activity during REM sleep is reduced even further and in many cases, completely absent. Some muscle twitching may be apparent in the EMG trace during REM sleep.
# (§2) Three drug doses of the test compound (50, 100 and 150 mg/kg PO) plus vehicle, was orally administered at ZT 2 (Zeitgeber time: 2 hours after light on) or ZT14 (Zeitgeber time: 2 hours after light off) and the effects on sleep was monitored for 6 hours after the drug administration (the sleep data was collected for 30 hours after the drug injection, and are available for further analysis). The doses for modafinil were 50 and 200 mg/kg PO (plus vehicle), and modafinil was also administered at ZT 2 and ZT 14.
# (§3) If the polygraph signals of some mice were not sufficient to score the sleep stage with accuracy (especially bad EMG), data from these animals were excluded, and the minimum of 5 animals (except for the highest dose of the test compound in wild-type mice in dark period, n=4) were included for the data analysis and number of animals were indicated in the figures.
# (§4) Effects of test compound and modafinil on the amount of wake, non-REM sleep, REM sleep (cumulative seconds), number of episodes for each sleep stage during 6 hours, mean wake/sleep-bout lengths (seconds) were analyzed in each animal and the mean of each parameter was calculated in each genotype. The effects of compounds on wake and sleep amounts are useful to evaluate the wake promoting potency, and the number of episodes for each sleep stage and the mean wake/sleep bout length are parameters for evaluating the sleep fragmentation. Amphetamine and modafinil, two main wake-promoting compounds currently used for the treatment of EDS associated with various etiologies (narcolepsy, idiopathic hypersomnia and secondary EDS), are known to increase wake time and prolong wake bout length in normal and EDS conditions.
# (§5) A comparison of the effects between hypocretin deficient and wild-type mice is very useful in determining if the wake-promotion of the test compound is dependent on the availability of hypocretins, and if there is a possible change in the sensitivity of the receptive mechanisms of test compound in narcoleptic mice due to the hypocretin ligand deficiency.
# [6] = system: littermate wild-type mice; test: Sleep parameters (EEG/EMG) in littermate wild-type mice; assay type: in vivo; conditions: for Duration of continuous wakefulness: resting period (ZT 2)
# Source text: as §1, §2, §3, §4, §5
# [7] = target: T3, hNET (human norepinephrine transporter) (Homo sapiens, UniProt P23975); test: cell-based; conditions: HEK-hNET cells; mean ± SEM; read-out: [3H]NE Uptake IC50
# T3 construct: expressed in transfected cells; host or cells: HEK293 cells (ATCC), clonal, kept under geneticin selection
# T3 sequence (P23975 whole entry): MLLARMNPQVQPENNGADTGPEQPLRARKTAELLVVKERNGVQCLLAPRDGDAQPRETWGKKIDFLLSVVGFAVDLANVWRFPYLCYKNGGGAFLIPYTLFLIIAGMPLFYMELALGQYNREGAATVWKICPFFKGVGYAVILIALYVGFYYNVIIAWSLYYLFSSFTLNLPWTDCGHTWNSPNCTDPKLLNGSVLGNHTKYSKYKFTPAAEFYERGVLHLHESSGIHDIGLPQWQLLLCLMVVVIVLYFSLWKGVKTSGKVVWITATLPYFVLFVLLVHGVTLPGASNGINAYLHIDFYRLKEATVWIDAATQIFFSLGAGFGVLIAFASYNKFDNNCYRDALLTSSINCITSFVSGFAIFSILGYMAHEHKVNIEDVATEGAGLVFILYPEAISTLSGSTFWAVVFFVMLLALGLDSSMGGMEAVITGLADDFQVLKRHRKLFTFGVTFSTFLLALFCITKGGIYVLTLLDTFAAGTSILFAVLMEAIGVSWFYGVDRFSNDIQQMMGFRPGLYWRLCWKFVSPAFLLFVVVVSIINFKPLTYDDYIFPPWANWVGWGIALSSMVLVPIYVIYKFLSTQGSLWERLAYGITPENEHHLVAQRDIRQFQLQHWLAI
# [8] = target: T1, hDAT (human dopamine transporter); test: Inhibition of [125I]RTI-55 radioligand binding to hDAT in HEK293 cell membranes
# [9] = target: T3, hNET (human norepinephrine transporter); test: biochemical; assay type: binding; conditions: HEK-hNET cells, mean ± SEM
# [10] = system: rats with sciatic nerve ligation; test: Thermal hyperalgesia (hindpaw withdrawal latency, plantar tester) in rats with sciatic nerve ligation; assay type: in vivo, Sprague-Dawley rats; conditions: 30 mg/kg IP; for Mean paw withdrawal latency: n = 6, mean ± SEM
# Protocol: Young adult male Sprague-Dawley rats (CD(SD)IGS, 150-200 g) were initially anesthetized with isoflurane in O2 by a mask and the surgical procedure was performed according to the method described by Bennett and Xie (1988). Briefly, the right sciatic nerves were loosely tied using ligatures. All experiments were conducted in accordance with the guidelines of the International Association for the Study of Pain. The behavioral tests were conducted at least 14 days postoperatively.
# The test compound was dissolved in saline and administered intraperitoneally at 30 mg/kg to animals in a volume of 3 mL/kg body weight.
# To test for thermal hyperalgesia, the thermal response was determined by the hindpaw withdrawal latency, using a plantar tester (UGO BASILE, Italy), and a modified method of Hargreaves et al. (1988). Rats were allowed to acclimate within plastic enclosures on a clear glass plate maintained at room temperature. A radiant heat source (intensity 90) was controlled with a timer and focused onto the plantar surface of the rat right hind paw encompassing the glabrous skin. Paw withdrawal stopped both heat source and timer. A maximal cut-off 30 sec was used to prevent tissue damage. Rats were assessed for thermal hyperalgesia predose (0 hr) and at 1, 4 and 8 hours after 30 mg/kg test compound administration.
# Data are expressed as mean±standard error of mean (SEM). The values of behavioral signs of neuropathic pain at various postoperative time points were compared with those of the preoperative control period by a repeated-measure One-way Analysis of Variance (followed by Dunnett's post-hoc test). P-values less than 0.05 were considered to be significant.
# [11] = resting period, PO, genotypes not separated
structure (smiles),measurement,setting,value
"CC(N)Cc1ccccc1 (stereo not drawn) [Amphetamine, reference compound]","Locomotor, rearing and stereotypical activities relative to vehicle controls",[1],increased
same,"Locomotor, rearing and stereotypical activities relative to vehicle controls",[2]; 2 mg/kg SC,decreased
"NC(=O)OC[C@H](N)Cc1ccccc1 [Test Compound, O-carbamoyl-(D)-phenylalaninol]",IC50,[3],2.9 µM
same,Ki,[4],81.5 µM
same,Hill coefficient,"[4]; HEK-hSERT cells, mean ± SEM",−2.28 ± 0.05
same,Duration of continuous wakefulness,"[5]; narcoleptic mice, 50 mg/kg PO",up to 3 hours
same,Duration of continuous wakefulness,"[5]; narcoleptic mice, 100 mg/kg PO",≤ 4 h
same,Duration of continuous wakefulness,"[5]; narcoleptic mice, 150 mg/kg PO",≤ 5 h
same,Non-REM and REM sleep during the period of continuous wakefulness,"[5]; narcoleptic mice, 50-150 mg/kg PO, resting period",completely suppressed
same,Wake-promoting effects,"[5]; narcoleptic mice, active (dark) period (ZT 14), 50-150 mg/kg PO",much pronounced wake-promoting effects
same,Wake amounts,"[5]; narcoleptic mice, active period, 100 and 150 mg/kg PO",brought up to the levels of wild-type mice
same,Amounts of non-REM and REM sleep,"[5]; narcoleptic mice, active period, PO",brought down to the levels of wild-type mice
same,EEG patterns after administration,"[5]; resting period, 50-150 mg/kg PO, genotypes not separated",no abnormal EEG patterns
same,Effect on REM sleep,[5]; [11],potently reduced REM sleep
same,Duration of continuous wakefulness,[6]; 50 mg/kg PO,up to 3 hours
same,Duration of continuous wakefulness,[6]; 100 mg/kg PO,≤ 4 h
same,Duration of continuous wakefulness,[6]; 150 mg/kg PO,≤ 5 h
same,Non-REM and REM sleep during the period of continuous wakefulness,"[6]; 50-150 mg/kg PO, resting period",completely suppressed
same,Wake-promoting effects,"[6]; active (dark) period (ZT 14), 50-150 mg/kg PO",only small effects were observed
same,IC50,[7],4.4 µM
same,Ki,[8],14.2 µM
same,Hill coefficient,"[8]; HEK-hDAT cells, mean ± SEM",−0.77 ± 0.12
same,Hill coefficient,[9],−1.45 ± 0.34
same,Ki,[9]; read-out: [125I]RTI-55 Binding Ki,3.7 µM
same,Spontaneous activity compared with amphetamine,[2]; 100 mg/kg SC vs 2 mg/kg amphetamine,suppressed activities more efficiently than amphetamine
same,"Spontaneous activity (locomotor, rearing, stereotypical activities)","[2]; 10, 30, 100 mg/kg SC, 90 min post-injection",selectively reduced activity of the KO mice in a dose-dependent manner; also recorded: reduced activities in a dose-dependent fashion
same,Mean paw withdrawal latency,[10]; 0 hr (predose),5.17 ± 0.27 s
same,Mean paw withdrawal latency,[10]; 1 hr post-injection,6.33 ± 0.14 s
same,Mean paw withdrawal latency,[10]; 4 hr post-injection,6.06 ± 0.21 s
same,Mean paw withdrawal latency,[10]; 8 hr post-injection,5.63 ± 0.16 s
same,% of Antagonism (latency at time point / latency at 0 hr − 1) × 100,[10]; 1 hr post-injection,(22.3%^@)
same,% of Antagonism (latency at time point / latency at 0 hr − 1) × 100,[10]; 4 hr post-injection,(17.2%)
same,% of Antagonism (latency at time point / latency at 0 hr − 1) × 100,[10]; 8 hr post-injection,(8.8%)
same,Paw withdrawal latency to a thermal stimulus (in words),[10]; vs pre-injection (0 hr),significantly increased the paw withdrawal latency
"NC(=O)C[S+]([O-])C(c1ccccc1)c1ccccc1 (stereo not drawn) [modafinil, reference compound]",Wake amount versus wild-type baseline,"[5]; narcoleptic mice, active period, 200 mg/kg PO",did not bring the wake amount to that of the wild-type baseline levels
same,Wakefulness,"[5]; narcoleptic mice, active period, 50 and 200 mg/kg PO",dose-dependently increase wakefulness
same,Wake promoting effect compared with test compound,"[5]; resting period, 200 mg/kg PO, genotypes not separated",roughly corresponds to 50 mg/kg of test compound
same,Wake promoting effects,"[5]; resting period, 50 and 200 mg/kg PO, genotypes not separated",modest
same,Effect on REM sleep,[5]; [11],did not strongly reduce REM sleep
